Publication PMC5908160, “Inhibition of sperm motility in male macaques with EP055, a potential non-hormonal male contraceptive” (PLoS ONE, 2018)

Assay: Blood constituents and health monitoring in rhesus males after EP055 infusion
Type: in vivo, Macaca mulatta
Set-up: Hematocrit: unit not given here
Details: post low dose 75–80 mg/kg
Description: The physical and behavioral condition of animals are monitored daily at ONPRC. Additional monitoring by Division of Comparative Medicine and/or clinical veterinary staff was provided immediately, at 1 hr, 2 hr and 6 hr post-administration of the contraceptive compound, and daily for up to 30 days after the final drug injection. Criteria used to assess animal health and welfare include: stool and urine quality and quantity, appetite and attitude (bright and alert, quiet, lethargic), pain (not eating, not moving, hunched over, lethargy/disinterest), vomiting, diarrhea, nausea, dehydration (unkempt coat, lack of urine production), and signs of wounds of injury. In addition, the ONPRC Standardized Pain Scoring system is used post-surgically to monitor an animal’s progress and improvement over time. Major criteria include animal appearance, posture, activity (including stool and urine production), vocalization and atypical behaviors.
Prior to infusion of EP055, each male was sedated with ketamine by the surgical staff at ONPRC and transported to the operating room. After positioning in dorsal recumbency, the male was intubated and placed under inhalant (isoflurane) anesthesia. Bilateral intravenous catheters were placed in cephalic veins, one for infusion and one for back-up. A percutaneous arterial line was placed in the right femoral artery for direct blood pressure measurement. Invasive blood pressure, heart rate, SpO2, and respirations were monitored by the surgical staff throughout the procedure. Initially, the low doses of EP055 in 5% DMSO-PBS 7.6 was infused by i.v. at 75-80 mg/kg, using a Medfusion 3500 pump (Smiths Medical, St. Paul, MN), and was started at a low flow rate ([…]). In 3 of 4 males, a 5-10% increase in blood pressure and heart rate were noted within the first 2-3 minutes of infusion of EP055. In these cases, the infusion was temporarily suspended until these parameters subsequently declined to normal. The infusion rate was then doubled to 1.2 ml/kg/min after 5-10 minutes and the final volume of EP055 infusate was administered. Blood pressure and heart rate remained normal throughout the rest of the infusion interval. The total volume of EP055 infusate ranged from 72 ml – 136 ml, depending upon the weight of the animal, and the duration of infusion was 10-13 minutes. Following completion of the infusion, all animals recovered normally. Animals were monitored by clinical veterinary staff immediately, at 1 hr, 2 hr and 6-8 hr post-infusion, and daily for up to 30 days after the final infusion of EP055. […] Two weeks after the infusion of the low dose and collection of the next set of baseline semen samples, males were infused with the high dose of EP055 (125-130 mg/kg) as described above, and monitored similarly.
Blood was collected from the brachial vein at the time of each semen collection, and used to determine complete blood counts and serum biochemistry tests (including electrolytes, glucose, lipids, proteins, enzymes and metabolic by-products) as performed in the Clinical Pathology Laboratory in the Division of Comparative Medicine at ONPRC.

With COC(=O)NNc1nc(Nc2ccc(NC(C)=O)c(O)c2)nc(SCC(=O)O)n1 [EP055] the GGT (6-8 hrs) was 70.5 ± 2.1- U/l, the GLUC (6-8 hrs) was 89.0 ± 6.7 mg/dL and the Hematocrit (6-8 hrs) was 44.3 ± 1.0. For the same molecule, the Hemoglobin (6-8 hrs) was 14.4 ± 0.3 g/dL, the Leukocytes (6-8 hrs) was 12.8 ± 2.7 x 10^3/mm^3 and the Lymphocytes (6-8 hrs) was 18.8 ± 1.9%. It also gave an MCH (6-8 hrs) of 24.5 ± 0.3 pg/cell, an MCHC (6-8 hrs) of 32.6 ± 0.1 g/dL and an MCV (6-8 hrs) of 75.1 ± 1.2 fl/cell. The Magnesium (6-8 hrs) was 1.8 ± 0.0 mg/dL, the Monocytes (6-8 hrs) was 4.9 ± 0.1% and the Neutrophils (6-8 hrs) was 9.5 ± 2.0 x 10^3/mm^3. The Phosphorus (6-8 hrs) was 5.3 ± 0.3 mg/dL, the Platelets (6-8 hrs) was 268.5 ± 38.7 x 10^6 and the Potassium (6-8 hrs) was 3.9 ± 0.2 mEq/l. The Sodium (6-8 hrs) was 149.0 ± 0.9 mEq/l, the “Total Bilirubin” value (6-8 hrs) was 0.2 ± 0.1 mg/dL and the “Total Protein” value (6-8 hrs) was 7.5 ± 0.0 g/dL. The Triglycerides (6-8 hrs) was 63.8 ± 5.7 mg/dL, the ALT (28-30 hrs) was 54.3 ± 3.8 U/l and the AST (28-30 hrs) was 51.0 ± 6.6 U/l. For the same molecule, the Albumin (28-30 hrs) was 4.8 ± 0.1 g/dL, the “Alkaline Phosphatase” value (28-30 hrs) was 128.5 ± 12.5 U/l and the BUN (28-30 hrs) was 15.0 ± 1.5 mg/dL. The Basophils (28-30 hrs) was 0.6 ± 0.1%, the CREAT (28-30 hrs) was 1.0 ± 0.0 mg/dL and the Chloride (28-30 hrs) was 110.3 ± 0.9 mEq/l. The Cholesterol (28-30 hrs) was 149.5 ± 19.5 mg/dL, the Eosinophils (28-30 hrs) was 1.4 ± 0.1% and the Erythrocytes (28-30 hrs) was 5.9 ± 0.3 x 10^6/mm^3. It also gave a GGT (28-30 hrs) of 72.5 ± 3.9 U/l, a GLUC (28-30 hrs) of 90.0 ± 10.3 mg/dL and a Hematocrit (28-30 hrs) of 43.9 ± 1.9. For the same molecule, the Hemoglobin (28-30 hrs) was 14.4 ± 0.7 g/dL, the Leukocytes (28-30 hrs) was 11.8 ± 3.1 x 10^3/mm^3 and the Lymphocytes (28-30 hrs) was 31.1 ± 4.8%. It also gave an MCH (28-30 hrs) of 24.4 ± 0.2 pg/cell, an MCHC (28-30 hrs) of 32.7 ± 0.3 g/dL and an MCV (28-30 hrs) of 74.7 ± 1.0 fl/cell. The Magnesium (28-30 hrs) was 1.7 ± 0.1 mg/dL, the Monocytes (28-30 hrs) was 5.7 ± 0.3% and the Neutrophils (28-30 hrs) was 7.2 ± 2.0 x 10^3/mm^3. For the same molecule, the Phosphorus (28-30 hrs) was 4.0 ± 0.5 mg/dL, the Platelets (28-30 hrs) was 185.8 ± 35.8 x 10^6 and the Potassium (28-30 hrs) was 4.2 ± 0.2 mEq/l. For the same molecule, the Sodium (28-30 hrs) was 149.0 ± 1.1 mEq/l, the “Total Bilirubin” value (28-30 hrs) was 0.2 ± 0.0 mg/dL and the “Total Protein” value (28-30 hrs) was 7.7 ± 0.2 g/dL. The Triglycerides (28-30 hrs) was 75.3 ± 28.9 mg/dL, the ALT (78 hrs) was 60.3 ± 12.2 U/l and the AST (78 hrs) was 73.8 ± 33.6 U/l. For the same molecule, the Albumin (78 hrs) was 4.7 ± 0.1 g/dL, the “Alkaline Phosphatase” value (78 hrs) was 125.3 ± 16.3 U/l and the BUN (78 hrs) was 18.8 ± 3.2 mg/dL. The Basophils (78 hrs) was 0.6 ± 0.1%, the CREAT (78 hrs) was 1.0 ± 0.0 mg/dL and the Chloride (78 hrs) was 108.0 ± 0.8 mEq/l. For the same molecule, the Cholesterol (78 hrs) was 144.0 ± 17.0 mg/dL, the Eosinophils (78 hrs) was 2.0 ± 0.5% and the Erythrocytes (78 hrs) was 5.5 ± 0.2 x 10^6/mm^3. It also gave a GGT (78 hrs) of 65.3 ± 2.7 U/l, a GLUC (78 hrs) of 91.5 ± 7.4 mg/dL and a Hematocrit (78 hrs) of 40.6 ± 0.8. The Hemoglobin (78 hrs) was 13.3 ± 0.3 g/dL, the Leukocytes (78 hrs) was 11.2 ± 3.3 x 10^3/mm^3 and the Lymphocytes (78 hrs) was 33.7 ± 5.0%. For the same molecule, the MCH (78 hrs) was 24.5 ± 0.3 pg/cell, the MCHC (78 hrs) was 32.8 ± 0.1 g/dL and the MCV (78 hrs) was 74.6 ± 1.2 fl/cell. For the same molecule, the Magnesium (78 hrs) was 1.8 ± 0.0 mg/dL, the Monocytes (78 hrs) was 5.5 ± 0.5% and the Neutrophils (78 hrs) was 6.6 ± 2.2 x 10^3/mm^3. For the same molecule, the Phosphorus (78 hrs) was 4.1 ± 0.6 mg/dL, the Platelets (78 hrs) was 270.8 ± 25.8 x 10^6 and the Potassium (78 hrs) was 4.0 ± 0.1 mEq/l. The Sodium (78 hrs) was 147.0 ± 1.2 mEq/l, the “Total Bilirubin” value (78 hrs) was 0.2 ± 0.0 mg/dL and the “Total Protein” value (78 hrs) was 7.6 ± 0.1 g/dL. It also gave a Triglycerides (78 hrs) of 57.3 ± 14.1 mg/dL, an ALT (Recovery) of 31.7 ± 2.3 U/l and an AST (Recovery) of 42.3 ± 2.6 U/l. The Albumin (Recovery) was 4.3 ± 0.1 g/dL, the “Alkaline Phosphatase” value (Recovery) was 79.0 ± 2.3 U/l and the BUN (Recovery) was 16.5 ± 1.9 mg/dL. It also gave a Basophils (Recovery) of 0.5 ± 0.1%, a CREAT (Recovery) of 0.8 ± 0.0 mg/dL and a Chloride (Recovery) of 107.0 ± 0.0 mEq/l. For the same molecule, the Cholesterol (Recovery) was 138.7 ± 19.3 mg/dL, the Eosinophils (Recovery) was 1.4 ± 0.3% and the Erythrocytes (Recovery) was 5.7 ± 0.2- x 10^6/mm^3. For the same molecule, the GGT (Recovery) was 62.3 ± 1.8 U/l, the GLUC (Recovery) was 58.3 ± 4.5 mg/dL and the Hematocrit (Recovery) was 42.4 ± 1.1. For the same molecule, the Hemoglobin (Recovery) was 13.8 ± 0.4 g/dL, the Leukocytes (Recovery) was 5.9 ± 1.0 x 10^3/mm^3 and the Lymphocytes (Recovery) was 44.8 ± 5.4%. The MCH (Recovery) was 24.1 ± 0.4 pg/cell, the MCHC (Recovery) was 32.5 ± 0.2 g/dL and the MCV (Recovery) was 74.1 ± 0.9 fl/cell. The Magnesium (Recovery) was 1.9 ± 0.1 mg/dL, the Monocytes (Recovery) was 6.4 ± 0.2% and the Neutrophils (Recovery) was 4.5 ± 1.7 x 10^3/mm^3. The Phosphorus (Recovery) was 5.1 ± 0.2 mg/dL, the Platelets (Recovery) was 295.7 ± 11.8 x 10^6 and the Potassium (Recovery) was 4.0 ± 0.1 mEq/l. The Sodium (Recovery) was 146.7 ± 0.3 mEq/l, the “Total Bilirubin” value (Recovery) was 0.2 ± 0.0 mg/dL and the “Total Protein” value (Recovery) was 7.1 ± 0.1 g/dL. For the same molecule, the Triglycerides (Recovery) was 38.0 ± 6.9 mg/dL.
